± gives the expanded uncertainty stated by the source.
Settings: Liquid, Capillary tube (Ostwald / Ubbelohde) method

CCCCCCCCCC [decane]
Settings	viscosity [mPa·s]
303.1 K, 3970 kPa	0.828 ± 0.028
303.2 K, 960 kPa	0.8 ± 0.026
303.2 K, 3010 kPa	0.814 ± 0.027
303.3 K, 150 kPa	0.788 ± 0.026
303.3 K, 2000 kPa	0.808 ± 0.027
323.7 K, 1120 kPa	0.617 ± 0.02
323.7 K, 1990 kPa	0.628 ± 0.021
323.7 K, 3010 kPa	0.625 ± 0.02
323.8 K, 140 kPa	0.606 ± 0.02
323.8 K, 3960 kPa	0.631 ± 0.021
348.9 K, 140 kPa	0.459 ± 0.015
348.9 K, 1050 kPa	0.465 ± 0.015
348.9 K, 2090 kPa	0.469 ± 0.015
348.9 K, 2930 kPa	0.475 ± 0.015
348.9 K, 3950 kPa	0.481 ± 0.016
373.7 K, 130 kPa	0.365 ± 0.012
373.7 K, 960 kPa	0.368 ± 0.012
373.7 K, 2040 kPa	0.373 ± 0.012
373.7 K, 2890 kPa	0.376 ± 0.012
373.7 K, 3960 kPa	0.381 ± 0.013
398.1 K, 3940 kPa	0.312 ± 0.01
398.2 K, 140 kPa	0.295 ± 0.0097
398.2 K, 990 kPa	0.299 ± 0.0097
398.2 K, 2030 kPa	0.304 ± 0.0098
398.2 K, 2910 kPa	0.309 ± 0.01
423.4 K, 2960 kPa	0.254 ± 0.0083
423.4 K, 3940 kPa	0.258 ± 0.0084
423.5 K, 950 kPa	0.247 ± 0.008
423.5 K, 1060 kPa	0.246 ± 0.008
423.5 K, 2110 kPa	0.251 ± 0.0081
447.7 K, 1060 kPa	0.206 ± 0.0067
447.7 K, 1990 kPa	0.209 ± 0.0068
447.7 K, 2960 kPa	0.212 ± 0.0069
447.7 K, 3990 kPa	0.216 ± 0.007
473.4 K, 2150 kPa	0.174 ± 0.0057
473.4 K, 2920 kPa	0.177 ± 0.0058
473.4 K, 3990 kPa	0.18 ± 0.0059
498.2 K, 3890 kPa	0.152 ± 0.005
498.3 K, 2090 kPa	0.146 ± 0.0048
498.3 K, 3060 kPa	0.15 ± 0.0049
523 K, 3970 kPa	0.129 ± 0.0043
523.1 K, 1060 kPa	0.118 ± 0.004
523.1 K, 1940 kPa	0.122 ± 0.0041
523.1 K, 3000 kPa	0.126 ± 0.0042
547.9 K, 1070 kPa	0.0957 ± 0.0033
547.9 K, 1980 kPa	0.1 ± 0.0034
547.9 K, 2940 kPa	0.105 ± 0.0035
547.9 K, 4000 kPa	0.108 ± 0.0036
573.6 K, 1930 kPa	0.0796 ± 0.0028
573.7 K, 2970 kPa	0.0855 ± 0.003
573.8 K, 4030 kPa	0.091 ± 0.0031
598.4 K, 4020 kPa	0.0745 ± 0.0026
598.5 K, 2090 kPa	0.0619 ± 0.0023
598.5 K, 2980 kPa	0.0696 ± 0.0025

C1CCCCC1 [cyclohexane]
Settings	viscosity [mPa·s]
303.1 K, 2930 kPa	0.852 ± 0.029
305.1 K, 960 kPa	0.801 ± 0.026
305.2 K, 140 kPa	0.796 ± 0.027
305.2 K, 1960 kPa	0.819 ± 0.027
305.2 K, 3940 kPa	0.839 ± 0.028
313.8 K, 2920 kPa	0.721 ± 0.025
323.7 K, 150 kPa	0.601 ± 0.02
323.7 K, 1990 kPa	0.614 ± 0.02
323.7 K, 4000 kPa	0.631 ± 0.021
324 K, 1020 kPa	0.616 ± 0.021
348.9 K, 140 kPa	0.432 ± 0.015
348.9 K, 990 kPa	0.44 ± 0.015
348.9 K, 2080 kPa	0.445 ± 0.014
348.9 K, 3030 kPa	0.451 ± 0.015
348.9 K, 3930 kPa	0.449 ± 0.015
373.7 K, 970 kPa	0.331 ± 0.011
373.7 K, 2020 kPa	0.336 ± 0.011
373.7 K, 2930 kPa	0.34 ± 0.011
373.7 K, 3960 kPa	0.346 ± 0.011
398.1 K, 2000 kPa	0.262 ± 0.0085
398.1 K, 4010 kPa	0.27 ± 0.0088
398.2 K, 960 kPa	0.258 ± 0.0084
398.2 K, 2940 kPa	0.266 ± 0.0087
422.4 K, 960 kPa	0.204 ± 0.0066
422.5 K, 1970 kPa	0.209 ± 0.0068
422.5 K, 2960 kPa	0.214 ± 0.007
422.5 K, 3960 kPa	0.216 ± 0.007
447.5 K, 1010 kPa	0.165 ± 0.0054
447.6 K, 2040 kPa	0.165 ± 0.0055
447.7 K, 3010 kPa	0.17 ± 0.0056
447.7 K, 4000 kPa	0.174 ± 0.0057
473.3 K, 3000 kPa	0.138 ± 0.0046
473.4 K, 1930 kPa	0.131 ± 0.0044
473.4 K, 3930 kPa	0.139 ± 0.0046
497.9 K, 3050 kPa	0.106 ± 0.0036
498.1 K, 3980 kPa	0.11 ± 0.0037
498.2 K, 3020 kPa	0.106 ± 0.0036
498.3 K, 4020 kPa	0.11 ± 0.0037
523 K, 3050 kPa	0.0791 ± 0.0028
523 K, 3970 kPa	0.0856 ± 0.003
